Laboratory results taken from patent publication US4622389A, “Novel substrate for determining the activity of blood coagulation factor Xa (Stuart-Prower factor)” (Nitto Poseki Co., Ltd., priority 1984, dated 1986).
Residues, ends and D or L forms follow the SMILES beside them. *: point of attachment. pNA = O=[N+]([O-])c1ccc(N*)cc1; Bz = O=C(c1ccccc1)*

What was measured:
factor Xa (FXa) = molecular target: T1, factor Xa (FXa) (Homo sapiens, UniProt P00742); assay: Substrate specificity test: reaction of substrates with FXa, absorbance of liberated chromogen; assay type: biochemical; conditions: for absorbance (O.D.), FXa: So = 0.4 mM/l, 5 min reaction at 37° C.
T1 construct: purchased Bohringer Mannheim, GmbH, West Germany
T1 sequence (P00742 235-488 limits assumed): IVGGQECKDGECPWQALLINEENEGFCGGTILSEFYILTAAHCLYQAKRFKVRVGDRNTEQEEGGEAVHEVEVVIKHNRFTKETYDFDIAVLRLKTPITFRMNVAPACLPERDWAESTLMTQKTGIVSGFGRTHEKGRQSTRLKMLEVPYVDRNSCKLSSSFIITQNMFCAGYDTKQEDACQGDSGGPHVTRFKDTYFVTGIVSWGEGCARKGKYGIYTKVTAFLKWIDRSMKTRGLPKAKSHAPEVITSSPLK
T1 sequence (P00742 41-179 partner limits assumed): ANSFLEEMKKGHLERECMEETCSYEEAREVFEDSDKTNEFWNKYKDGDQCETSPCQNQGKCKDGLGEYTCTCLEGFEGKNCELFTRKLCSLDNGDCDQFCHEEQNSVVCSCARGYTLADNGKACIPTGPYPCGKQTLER
Protocol: (§1) The specificities of newly synthesized substrates were tested by reacting them with various enzymes as follows.
(§2) (1) Substrate solution: 2 mM/liter of H2 O
(§3) (2) Buffer solutions: The concentrations of each of tris(hydroxymethyl)aminomethane [hereinafter referred to as "Tris"], NaCl and CaCl2, as well as pH were specified as follows for the respective enzymes. […]
(§4) (4) Reaction Stopper (PNA): 10%-acetic acid
(§5) (5) Color forming agent (CHA): Pentacyanoamineferroate
(§6) (6) Method of determination:
(§7) 0.3 Milliter buffer solution and 0.1 ml of enzyme reagent were collected in a hard glass test tube of which surface being treated with silicone, or a plastic test tube and preheated in a thermostat at 37° C. for 5 minutes. Precisely 5 minutes after the reaction was started, 2.0 ml of reaction stopper solution or reactionterminating color forming reagent was added to terminate the enzyme reaction. The reaction mixture was allowed to stand at 37° C. for 10 minutes and then the adsorbance at 405 nm or 700 nm was measured.

thrombin (TH) = molecular target: T2, thrombin (TH) (Bos taurus, UniProt P00735); assay: Substrate specificity test: reaction of substrates with thrombin; assay type: biochemical, Bovine; conditions: for absorbance (O.D.), TH: So = 0.4 mM/l, 5 min reaction at 37° C.
T2 construct: proteolyze factor II (prothrombin) at two points of peptide chain to turn it into factor IIa (thrombin); purchased Mochida Pharmaceutical Co., Ltd., Japan
Protocol: as §1, §2, §3, §4, §5, §6, §7

plasmin (PL) = molecular target: T3, plasmin (PL) (Homo sapiens, UniProt P00747); assay: Substrate specificity test: reaction of substrates with plasmin; assay type: biochemical; conditions: for absorbance (O.D.), PL: So = 0.4 mM/l, 5 min reaction at 37° C.
T3 construct: Plasmin Human; purchased The Green Cross Corporation, Japan
T3 sequence (P00747 581-810 limits assumed): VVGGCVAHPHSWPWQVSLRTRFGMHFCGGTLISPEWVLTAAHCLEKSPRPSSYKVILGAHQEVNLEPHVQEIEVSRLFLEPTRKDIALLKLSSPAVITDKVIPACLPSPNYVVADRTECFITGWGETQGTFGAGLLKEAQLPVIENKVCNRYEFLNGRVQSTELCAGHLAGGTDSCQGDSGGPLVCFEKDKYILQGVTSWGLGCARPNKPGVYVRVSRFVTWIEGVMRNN
T3 sequence (P00747 97-580 partner limits assumed): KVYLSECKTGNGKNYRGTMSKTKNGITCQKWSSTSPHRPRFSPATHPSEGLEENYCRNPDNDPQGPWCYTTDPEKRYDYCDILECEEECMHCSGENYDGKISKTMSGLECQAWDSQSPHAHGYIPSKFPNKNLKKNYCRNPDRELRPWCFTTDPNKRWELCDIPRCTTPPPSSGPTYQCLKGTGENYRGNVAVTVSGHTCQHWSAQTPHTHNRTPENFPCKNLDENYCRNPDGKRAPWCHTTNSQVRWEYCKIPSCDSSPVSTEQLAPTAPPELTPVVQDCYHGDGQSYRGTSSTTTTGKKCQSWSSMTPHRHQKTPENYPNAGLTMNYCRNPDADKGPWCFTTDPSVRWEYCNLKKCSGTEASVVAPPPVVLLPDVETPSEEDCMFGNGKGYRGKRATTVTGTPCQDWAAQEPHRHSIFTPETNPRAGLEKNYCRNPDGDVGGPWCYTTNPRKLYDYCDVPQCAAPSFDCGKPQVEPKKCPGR
Protocol: as §1, §2, §3, §4, §5, §6, §7

kallikrein (KL) = molecular target: T4, kallikrein (KL) (Sus scrofa, UniProt P00752); assay: Substrate specificity test: reaction of substrates with kallikrein; assay type: biochemical, Swine; conditions: So = 0.4 mM/l, 5 min reaction at 37° C.
T4 construct: purchased Sigma Chemical Co., U.S.A
T4 sequence (P00752 8-246): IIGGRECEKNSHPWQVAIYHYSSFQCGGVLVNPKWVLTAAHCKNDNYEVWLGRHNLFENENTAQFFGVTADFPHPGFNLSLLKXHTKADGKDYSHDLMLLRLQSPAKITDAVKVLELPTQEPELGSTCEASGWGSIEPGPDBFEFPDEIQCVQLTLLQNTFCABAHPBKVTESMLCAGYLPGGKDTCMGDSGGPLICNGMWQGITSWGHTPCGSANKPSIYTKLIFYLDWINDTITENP
Protocol: as §1, §2, §3, §4, §5, §6, §7

urokinase (UK) = molecular target: T5, urokinase (UK) (Homo sapiens, UniProt P00749); assay: Substrate specificity test: reaction of substrates with urokinase; assay type: biochemical; conditions: for absorbance (O.D.), UK: So = 0.4 mM/l, 5 min reaction at 37° C.
T5 construct: purchased Mochida Pharmaceutical Co., Ltd., Japan
Protocol: as §1, §2, §3, §4, §5, §6, §7

Solubility in water = assay type: physicochemical
[1] = PS-2000N given as 100, initial substrate concentration So = 0.4 mmol
[2] = 700 nm (CHA substrates, pentacyanoamineferroate)

Structure (SMILES) | absorbance (O.D.), FXa (factor Xa (FXa); [2]) [O.D.] | absorbance (O.D.), TH (thrombin (TH); [2]) [O.D.] | absorbance (O.D.), PL (plasmin (PL); [2]) [O.D.] | absorbance (O.D.), KL (kallikrein (KL); [2]) [O.D.] | absorbance (O.D.), UK (urokinase (UK); [2]) [O.D.] | further results
CC[C@H](C)[C@H](NC(=O)c1ccccc1)C(=O)N[C@@H](CCC(=O)O)C(=O)NCC(=O)N[C@@H](CCCNC(=N)N)C(=O)Nc1ccc([N+](=O)[O-])cc1 [S-2222, Bz-Ile-Glu-Gly-Arg-PNA, reference compound] (Bz-IEGR-pNA) |  |  |  |  |  | absorbance (O.D.), FXa (factor Xa (FXa); 405 nm (PNA substrates)): 0.669 O.D.; Relative reactivity to enzymes, Fxa (factor Xa (FXa); [1]): 57%; absorbance (O.D.), TH (thrombin (TH); 405 nm (PNA substrates)): 0.018 O.D.; Relative reactivity to enzymes, TH (thrombin (TH); [1]): 31%; absorbance (O.D.), PL (plasmin (PL); 405 nm (PNA substrates)): 0.011 O.D.; Relative reactivity to enzymes, PL (plasmin (PL); [1]): 16%; absorbance (O.D.), KL (kallikrein (KL); 405 nm (PNA substrates)): 0.013 O.D.; absorbance (O.D.), UK (urokinase (UK); 405 nm (PNA substrates)): 0.035 O.D.; Relative reactivity to enzymes, UK (urokinase (UK); [1]): 40%
N=C(N)NCCC[C@H](NC(=O)CNC(=O)[C@@H](CCCCN)NC(=O)OCc1ccccc1)C(=O)Nc1ccc(O)c(C(=O)O)c1 [PS-2001, ZD-LysGlyArgCHA] | 0.314 | 0.006 | 0.005 | 0.0 | 0.004 | 
CC[C@H](C)[C@H](NC(=O)c1ccccc1)C(=O)N[C@@H](CCC(=O)O)C(=O)NCC(=O)N[C@@H](CCCN=C(N)N)C(=O)Nc1ccc([N+](=O)[O-])cc1 [S-2222, Bz-Ile-Glu-Gly-Arg-PNA, reference compound] (Bz-IEGR-pNA) |  |  |  |  |  | water solubility (Solubility in water): about 6 mmol/1
CC(=O)NCCCC[C@@H](NC(=O)OCc1ccccc1)C(=O)NCC(=O)N[C@@H](CCCNC(=N)N)C(=O)Nc1ccc(O)c(C(=O)O)c1 [PS-2002, ZD-Lys(Ac)GlyArgCHA] | 0.426 | 0.009 | 0.004 | 0.0 | 0.003 | 
CN(CC(=O)N[C@@H](CCCNC(=N)N)C(=O)Nc1ccc(O)c(C(=O)O)c1)C(=O)[C@@H](CCCCN)NC(=O)OCc1ccccc1 [PS-2004, ZD-LysSarArgCHA] | 0.292 | 0.006 | 0.0 | 0.0 | 0.0 | 
